According to ChEMBL document CHEMBL1201861, “Genomics of Drug Sensitity in Cancer screening data, Wellcome Trust Sanger Institute”:

What was measured:
Assay in all cases: cells
MSTO-211H = assay type: functional, cell-based, Homo sapiens; conditions: Homo sapiens, MSTO-211H
Description: SANGER: Inhibition of human MSTO-211H cell growth in a cell viability assay.

AM-38 = assay type: functional, cell-based, Homo sapiens; conditions: Homo sapiens, AM-38;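 note: growth inhibition of AM-38 cells of human origin, read out by a cell viability assay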
Description: SANGER: Inhibition of human AM-38 cell growth in a cell viability assay.

LC-2-ad = assay type: functional, cell-based, Homo sapiens; conditions: Homo sapiens, LC-2-ad;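 note: growth inhibition of human LC-2-ad cells, read out with a cell viability assay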
Description: SANGER: Inhibition of human LC-2-ad cell growth in a cell viability assay.

Becker = assay type: functional, cell-based, Homo sapiens; conditions: Homo sapiens, Becker;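 note: growth inhibition of Becker cells, read out with a cell viability assay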
Description: SANGER: Inhibition of human Becker cell growth in a cell viability assay.

U-87 MG = assay type: functional, cell-based, Homo sapiens, U-87MG ATCC; conditions: Homo sapiens, U-87 MG;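 note: growth inhibition of the cells measured with a viability assay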
Description: SANGER: Inhibition of human U-87-MG cell growth in a cell viability assay.

LB831-BLC = assay type: functional, cell-based, Homo sapiens; conditions: Homo sapiens, LB831-BLC;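 note: growth inhibition of LB831-BLC cells, read out with a cell viability assay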
Description: SANGER: Inhibition of human LB831-BLC cell growth in a cell viability assay.

SNU1 = assay type: functional, cell-based, Homo sapiens; conditions: Homo sapiens, SNU1;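 note: growth inhibition of human NCI-SNU-1 cells, measured with a cell viability assay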
Description: SANGER: Inhibition of human NCI-SNU-1 cell growth in a cell viability assay.

MOLT-16 = assay type: functional, cell-based, Homo sapiens; conditions: Homo sapiens, MOLT-16;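 note: growth inhibition of human MOLT-16 cells, read out with a cell viability assay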
Description: SANGER: Inhibition of human MOLT-16 cell growth in a cell viability assay.

RPMI-8866 = assay type: functional, cell-based, Homo sapiens; conditions: Homo sapiens, RPMI-8866
Description: SANGER: Inhibition of human RPMI-8866 cell growth in a cell viability assay.

KNS-81-FD = assay type: functional, cell-based, Homo sapiens; conditions: Homo sapiens, KNS-81-FD;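 note: growth inhibition of KNS-81-FD cells, read out with a cell viability assay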
Description: SANGER: Inhibition of human KNS-81-FD cell growth in a cell viability assay.

ES4 = assay type: functional, cell-based, Homo sapiens; conditions: Homo sapiens, ES4;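 note: growth inhibition of human ES4 cells, read out by a cell viability assay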
Description: SANGER: Inhibition of human ES4 cell growth in a cell viability assay.

LS-513 = assay type: functional, cell-based, Homo sapiens; conditions: Homo sapiens, LS-513
Description: SANGER: Inhibition of human LS-513 cell growth in a cell viability assay.

MZ1-PC = assay type: functional, cell-based, Homo sapiens; conditions: Homo sapiens, MZ1-PC;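 note: cell viability assay measuring growth inhibition of human MZ1-PC cells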
Description: SANGER: Inhibition of human MZ1-PC cell growth in a cell viability assay.

KALS-1 = assay type: functional, cell-based, Homo sapiens; conditions: Homo sapiens, KALS-1; read-out: IC50;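 note: growth inhibition of KALS-1 cells, determined with a cell viability assay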
Description: SANGER: Inhibition of human KALS-1 cell growth in a cell viability assay.

KP-N-YS = assay type: functional, cell-based, Homo sapiens; conditions: Homo sapiens, KP-N-YS;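 note: cell viability assay measuring inhibition of cell line growth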
Description: SANGER: Inhibition of human KP-N-YS cell growth in a cell viability assay.

ES1 = assay type: functional, cell-based, Homo sapiens; conditions: Homo sapiens, ES1;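 note: growth inhibition of ES1 cells, read out with a cell viability assay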
Description: SANGER: Inhibition of human ES1 cell growth in a cell viability assay.

EW-16 = assay type: functional, cell-based, Homo sapiens; conditions: Homo sapiens, EW-16;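 note: growth inhibition of human EW-16 cells, read out as cell viability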
Description: SANGER: Inhibition of human EW-16 cell growth in a cell viability assay.

SHP77 = assay type: functional, cell-based, Homo sapiens, SHP-77; conditions: Homo sapiens, SHP77;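 note: growth inhibition of human SHP-77 cells measured by a cell viability assay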
Description: SANGER: Inhibition of human SHP-77 cell growth in a cell viability assay.

C8166 = assay type: functional, cell-based, Homo sapiens; conditions: Homo sapiens, C8166;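 note: growth inhibition of human C8166 cells measured by a cell viability assay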
Description: SANGER: Inhibition of human C8166 cell growth in a cell viability assay.

LAN-6 = assay type: functional, cell-based, Homo sapiens; conditions: Homo sapiens, LAN-6;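 note: growth inhibition of LAN-6 cells, determined with a cell viability assay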
Description: SANGER: Inhibition of human LAN-6 cell growth in a cell viability assay.

BB30-HNC = assay type: functional, cell-based, Homo sapiens; conditions: Homo sapiens, BB30-HNC;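 note: growth inhibition of the cultured cell line, read out by a cell viability assay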
Description: SANGER: Inhibition of human BB30-HNC cell growth in a cell viability assay.

IST-MEL1 = assay type: functional, cell-based, Homo sapiens; conditions: Homo sapiens, IST-MEL1;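 note: growth inhibition of the cell line, read out with a cell viability assay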
Description: SANGER: Inhibition of human IST-MEL1 cell growth in a cell viability assay.

LU-134-A = assay type: functional, cell-based, Homo sapiens; conditions: Homo sapiens, LU-134-A
Description: SANGER: Inhibition of human LU-134-A cell growth in a cell viability assay.

LAMA-84 = assay type: functional, cell-based, Homo sapiens; conditions: Homo sapiens, LAMA-84;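 note: growth inhibition of LAMA-84 cells, read out with a cell viability assay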
Description: SANGER: Inhibition of human LAMA-84 cell growth in a cell viability assay.

SCH = assay type: functional, cell-based, Homo sapiens; conditions: Homo sapiens, SCH;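 note: growth inhibition of human SCH cells, read out in a cell viability assay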
Description: SANGER: Inhibition of human SCH cell growth in a cell viability assay.

KE-37 = assay type: functional, cell-based, Homo sapiens; conditions: Homo sapiens, KE-37;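 note: growth inhibition of KE-37 cells, read out with a cell viability assay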
Description: SANGER: Inhibition of human KE-37 cell growth in a cell viability assay.

TE-5 = assay type: functional, cell-based, Homo sapiens; conditions: Homo sapiens, TE-5;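 note: inhibition of cell growth, read out by a cell viability assay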
Description: SANGER: Inhibition of human TE-5 cell growth in a cell viability assay.

ML-2 = assay type: functional, cell-based, Homo sapiens; conditions: Homo sapiens, ML-2;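 note: growth inhibition of ML-2 cells, measured with a cell viability readout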
Description: SANGER: Inhibition of human ML-2 cell growth in a cell viability assay.

LB996-RCC = assay type: functional, cell-based, Homo sapiens; conditions: Homo sapiens, LB996-RCC
Description: SANGER: Inhibition of human LB996-RCC cell growth in a cell viability assay.

SK-N-FI = assay type: functional, cell-based, Homo sapiens; conditions: Homo sapiens, SK-N-FI;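 note: cell viability assay measuring growth inhibition of human SK-N-FI cells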
Description: SANGER: Inhibition of human SK-N-FI cell growth in a cell viability assay.

RKO = assay type: functional, cell-based, Homo sapiens; conditions: Homo sapiens, RKO;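 note: growth inhibition of human RKO cells, read out with a cell viability assay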
Description: SANGER: Inhibition of human RKO cell growth in a cell viability assay.

ACN = assay type: functional, cell-based, Homo sapiens; conditions: Homo sapiens, ACN;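 note: growth inhibition of the human ACN cell line, read out via cell viability testing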
Description: SANGER: Inhibition of human ACN cell growth in a cell viability assay.

NOMO-1 = assay type: functional, cell-based, Homo sapiens; conditions: Homo sapiens, NOMO-1;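 note: growth inhibition of human NOMO-1 cells measured by a cell viability assay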
Description: SANGER: Inhibition of human NOMO-1 cell growth in a cell viability assay.

CAS-1 = assay type: functional, cell-based, Homo sapiens; conditions: Homo sapiens, CAS-1;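 note: growth inhibition of CAS-1 cells, measured with a cell viability assay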
Description: SANGER: Inhibition of human CAS-1 cell growth in a cell viability assay.

CCRF-CEM = assay type: functional, cell-based, Homo sapiens; conditions: Homo sapiens, CCRF-CEM;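 note: inhibition of CCRF-CEM cell growth, measured by a cell viability assay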
Description: SANGER: Inhibition of human CCRF-CEM cell growth in a cell viability assay.

KARPAS-299 = assay type: functional, cell-based, Homo sapiens; conditions: Homo sapiens, KARPAS-299
Description: SANGER: Inhibition of human KARPAS-299 cell growth in a cell viability assay.

NCI-H747 = assay type: functional, cell-based, Homo sapiens; conditions: Homo sapiens, NCI-H747;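 note: growth inhibition of human NCI-H747 cells, read out by a cell viability assay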
Description: SANGER: Inhibition of human NCI-H747 cell growth in a cell viability assay.

NCI-H1395 = assay type: functional, cell-based, Homo sapiens; conditions: Homo sapiens, NCI-H1395;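 note: cell viability assay read-out quantifying reduced proliferation of human NCI-H1395 cells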
Description: SANGER: Inhibition of human NCI-H1395 cell growth in a cell viability assay.

A101D = assay type: functional, cell-based, Homo sapiens; conditions: Homo sapiens, A101D;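 note: growth inhibition of the cell line, measured with a viability assay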
Description: SANGER: Inhibition of human A101D cell growth in a cell viability assay.

NCI-H209 = assay type: functional, cell-based, Homo sapiens; conditions: Homo sapiens, NCI-H209;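 note: growth inhibition of human NCI-H209 cells, measured by a cell viability assay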
Description: SANGER: Inhibition of human NCI-H209 cell growth in a cell viability assay.

RH-1 = assay type: functional, cell-based, Homo sapiens; conditions: Homo sapiens, RH-1;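 note: growth inhibition of human RH-1 cells, read out with a cell viability assay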
Description: SANGER: Inhibition of human RH-1 cell growth in a cell viability assay.

ONS-76 = assay type: functional, cell-based, Homo sapiens; conditions: Homo sapiens, ONS-76;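 note: growth inhibition of human ONS-76 cells, read out with a cell viability assay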
Description: SANGER: Inhibition of human ONS-76 cell growth in a cell viability assay.

LB771-HNC = assay type: functional, cell-based; conditions: Homo sapiens;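 note: growth inhibition of LB771-HNC human cells, read out with a cell viability assay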
Description: SANGER: Inhibition of human LB771-HNC cell growth in a cell viability assay.

EW-13 = assay type: functional, cell-based, Homo sapiens; conditions: Homo sapiens, EW-13; read-out: IC50;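 note: growth inhibition of EW-13 cells, read out with a cell viability assay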
Description: SANGER: Inhibition of human EW-13 cell growth in a cell viability assay.

JVM-3 = assay type: functional, cell-based, Homo sapiens; conditions: Homo sapiens, JVM-3;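 note: growth inhibition of human JVM-3 cells, read out with a cell viability assay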
Description: SANGER: Inhibition of human JVM-3 cell growth in a cell viability assay.

LNCaP-Clone-FGC = assay type: functional, cell-based, Homo sapiens; conditions: Homo sapiens, LNCaP-Clone-FGC
Description: SANGER: Inhibition of human LNCaP-Clone-FGC cell growth in a cell viability assay.

HCC2157 = assay type: functional, cell-based, Homo sapiens; conditions: Homo sapiens, HCC2157;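 note: growth inhibition of the cancer cell line, read out as cell viability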
Description: SANGER: Inhibition of human HCC2157 cell growth in a cell viability assay.

HOP-62 = assay type: functional, cell-based, Homo sapiens; conditions: Homo sapiens, HOP-62;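 note: cell growth inhibition determined with a viability assay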
Description: SANGER: Inhibition of human HOP-62 cell growth in a cell viability assay.

Measured: IC50

CC1(C)CCC(c2ccc(Cl)cc2)=C(CN2CCN(c3ccc(C(=O)NS(=O)(=O)c4ccc(N[C@H](CCN5CCOCC5)CSc5ccccc5)c(S(=O)(=O)C(F)(F)F)c4)cc3)CC2)C1 [NAVITOCLAX]
0.114 µM: KE-37
0.813 µM: EW-16
0.653 µM: MOLT-16
1.35 µM: ES4
0.335 µM: CCRF-CEM
0.44 µM: KNS-81-FD
0.592 µM: LAMA-84
> 2 µM: MSTO-211H | AM-38 | LC-2-ad | Becker | U-87 MG | LB831-BLC | RPMI-8866 | LS-513 | MZ1-PC | KALS-1 | ES1 | SHP77 | C8166 | LAN-6 | BB30-HNC | IST-MEL1 | SCH | TE-5 | LB996-RCC | SK-N-FI | RKO | ACN | NOMO-1 | CAS-1 | KARPAS-299 | NCI-H747 | NCI-H1395 | A101D | RH-1 | ONS-76 | LB771-HNC | JVM-3 | LNCaP-Clone-FGC
0.583 µM: EW-13
1.16 µM: KP-N-YS
0.187 µM: LU-134-A
0.087 µM: NCI-H209
1.37 µM: SNU1
0.0198 µM: ML-2
1.19 µM: HCC2157

CC1=C(/C=C/C(C)=C/C=C/C(C)=C/C(=O)O)C(C)(C)CCC1 [TRETINOIN]
0.996 µM: LAMA-84
4 µM: ML-2
1.65 µM: ACN
2.52 µM: NCI-H209
7.61 µM: EW-13
> 10 µM: MSTO-211H | AM-38 | LC-2-ad | Becker | U-87 MG | LB831-BLC | SNU1 | MOLT-16 | HOP-62 | RPMI-8866 | KNS-81-FD | ES4 | LS-513 | MZ1-PC | KALS-1 | KP-N-YS | ES1 | EW-16 | SHP77 | C8166 | LAN-6 | BB30-HNC | IST-MEL1 | LU-134-A | SCH | KE-37 | TE-5 | SK-N-FI | RKO | NOMO-1 | CAS-1 | CCRF-CEM | KARPAS-299 | NCI-H747 | NCI-H1395 | A101D | RH-1 | ONS-76 | LB771-HNC | JVM-3 | LNCaP-Clone-FGC

NC(=O)c1ccc(N(C(N)=O)c2c(F)cccc2F)nc1-c1ccc(F)cc1F [VX-702]
0.227 µM: ML-2
0.176 µM: NCI-H209
0.0154 µM: HOP-62
> 2 µM: MSTO-211H | AM-38 | LC-2-ad | Becker | U-87 MG | LB831-BLC | SNU1 | MOLT-16 | RPMI-8866 | KNS-81-FD | ES4 | LS-513 | MZ1-PC | KALS-1 | KP-N-YS | ES1 | EW-16 | SHP77 | C8166 | LAN-6 | BB30-HNC | IST-MEL1 | LU-134-A | LAMA-84 | SCH | KE-37 | TE-5 | SK-N-FI | RKO | ACN | NOMO-1 | CAS-1 | CCRF-CEM | KARPAS-299 | NCI-H747 | NCI-H1395 | A101D | RH-1 | ONS-76 | LB771-HNC | EW-13 | JVM-3 | LNCaP-Clone-FGC
